Measurements published in patent US7501412B2, “Isoquinoline compounds and medicinal use thereof” (Mitsubishi Tanabe Pharma Corporation, priority 2002, dated 2009).
Where a name gives a salt, the structure may show the parent alone.

Legend:
recombinant human PARP = target: T1, recombinant human PARP (Homo sapiens, UniProt P09874); assay: PARP enzyme activity inhibitory action; format: biochemical; details: recombinant human PARP (Trevigen), 3H-NAD, activated DNA, 25° C. for 15 min
T1 construct: purchased Trevigen 4667-02X
T1 sequence (P09874 whole entry): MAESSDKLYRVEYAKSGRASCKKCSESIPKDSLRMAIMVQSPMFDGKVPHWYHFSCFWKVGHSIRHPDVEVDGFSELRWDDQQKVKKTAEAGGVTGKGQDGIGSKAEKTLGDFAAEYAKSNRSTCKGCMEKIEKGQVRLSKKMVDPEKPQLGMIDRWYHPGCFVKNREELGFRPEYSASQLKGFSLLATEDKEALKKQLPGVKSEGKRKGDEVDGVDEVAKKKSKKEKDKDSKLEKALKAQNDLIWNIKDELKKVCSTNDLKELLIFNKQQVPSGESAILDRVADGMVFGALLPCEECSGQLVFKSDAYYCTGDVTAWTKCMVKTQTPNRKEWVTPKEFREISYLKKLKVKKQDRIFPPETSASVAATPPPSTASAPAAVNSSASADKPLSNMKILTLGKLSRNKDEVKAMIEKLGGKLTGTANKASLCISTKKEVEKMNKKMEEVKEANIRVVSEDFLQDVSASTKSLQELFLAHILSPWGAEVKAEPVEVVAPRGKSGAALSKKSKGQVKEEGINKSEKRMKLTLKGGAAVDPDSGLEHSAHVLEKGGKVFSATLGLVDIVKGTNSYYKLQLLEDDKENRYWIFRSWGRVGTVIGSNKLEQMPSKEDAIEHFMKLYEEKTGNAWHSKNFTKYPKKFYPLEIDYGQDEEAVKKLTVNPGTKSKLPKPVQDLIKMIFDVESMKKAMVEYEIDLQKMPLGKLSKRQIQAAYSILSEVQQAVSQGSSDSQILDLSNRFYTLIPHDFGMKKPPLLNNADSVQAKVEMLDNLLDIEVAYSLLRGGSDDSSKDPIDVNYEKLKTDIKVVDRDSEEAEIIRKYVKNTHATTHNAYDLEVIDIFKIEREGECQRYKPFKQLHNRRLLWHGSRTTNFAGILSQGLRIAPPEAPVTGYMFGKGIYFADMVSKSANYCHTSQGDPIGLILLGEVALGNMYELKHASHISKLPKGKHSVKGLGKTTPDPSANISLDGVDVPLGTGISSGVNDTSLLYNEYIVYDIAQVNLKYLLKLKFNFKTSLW
Experimental: After incubation at 25° C. for 15 min., the reaction was stopped by adding 20% trichloroacetic acid, and the resulting acid insoluble fraction was adsorbed to a GF/B filter. Then, the filter was washed several times with 5% trichloroacetic acid, and the radioactivity on the filter was measured with a liquid scintillation counter.

| SMILES | melting point [°C] | IC50 (recombinant human PARP) [nM] |
| --- | --- | --- |
| CN1CCC(c2c[nH]c(=O)c3c(F)cccc23)CC1 | 227.6 to 229.3 |  |
| Cc1ccc2c(C3CCN(C)CC3)c[nH]c(=O)c2c1 | 212.8 to 214.8 |  |
| O=C1NCCc2c(OCCCCN3CCCCC3)cccc21 [DPQ, 3,4-dihydro-5-[4-(1-piperidinyl)-butoxy]-1(2H)-isoquinolinone, reference compound] |  | 1000 |
| CN(C)CC(=O)c1c(N)[nH]c(=O)c2ccccc12 [Ex. 1, 3-amino-4-(2-(dimethylamino)acetyl)-2H-isoquinolin-1-one hydrochloride monohydrate] |  | 43 |
| Cn1nc(CN2CCCC2)c2c3ccccc3c(=O)[nH]c21 [Ex. 7, 3-methyl-1-(pyrrolidin-1-yl)methyl-3H-pyrazolo[3,4-c]isoquinolin-5(4H)-one] |  | 32 |
| CN(C)CC(=O)c1c(N)[nH]c(=O)c2cc(F)ccc12 [Ex. 14, 3-Amino-4-(2-(dimethylamino)acetyl)-7-fluoro-2H-isoquinolin-1-one hydrochloride] |  | 40 |
| CN1CCN(Cc2nn(C)c3[nH]c(=O)c4ccccc4c23)CC1 [Ex. 21, 3-Methyl-1-((4-methylpiperazin-1-yl)methyl)-3H-pyrazolo[3,4-c]isoquinolin-5(4H)-one] |  | 143 |
| Cc1[nH]c(=O)c2ccccc2c1CN1CCCC1 [Ex. 25, 3-Methyl-4-(pyrrolidin-1-yl)methyl-2H-isoquinolin-1-one] |  | 67 |
| Cc1[nH]c(=O)c2cc(Cl)ccc2c1CN1CCCC1 [Ex. 27, 7-chloro-3-methyl-4-((pyrrolidin-1-yl)methyl)-2H-isoquinolin-1-one] |  | 39 |
| Cc1[nH]c(=O)c2cc(F)ccc2c1CN1CCCC1 [Ex. 28, 7-Fluoro-3-methyl-4-((pyrrolidin-1-yl)methyl)-2H-isoquinolin-1-one] |  | 45 |
| O=c1[nH]cc(C2CCNCC2)c2ccccc12 [Ex. 31, 4-(piperidin-4-yl)-2H-isoquinolin-1-one hydrochloride] |  | 31 |

Other lines, results leading:

| melting point [°C] | IC50 (recombinant human PARP) [nM] | SMILES |
| --- | --- | --- |
| 231.8 to 234.6 |  | CN1CCC(c2c[nH]c(=O)c3cc(C(F)(F)F)ccc23)CC1 (as salt: hydrochloride) [Example 198, 4-(1-Methylpiperidin-4-yl)-7-trifluoromethyl-2H-isoquinolin-1-one] |
|  | 34 | O=c1[nH]cc(C2CCN(CCO)CC2)c2ccccc12 [Ex. 32, 4-(1-(2-hydroxyethyl)piperidin-4-yl)-2H-isoquinolin-1-one] |
|  | 40 | CN1CCC(c2c[nH]c(=O)c3ccccc23)CC1 [Ex. 33, 4-(1-methylpiperidin-4-yl)-2H-isoquinolin-1-one] |
|  | 22 | O=c1[nH]cc(C2CCNCC2)c2ccc(Cl)cc12 [Ex. 44, 7-Chloro-4-(piperidin-4-yl)-2H-isoquinolin-1-one hydrochloride] |
|  | 22 | O=c1[nH]cc(C2CCNCC2)c2ccc(F)cc12 [Ex. 45, 7-Fluoro-4-(piperidin-4-yl)-2H-isoquinolin-1-one hydrochloride] |
|  | 37 | CN1CCC(c2c[nH]c(=O)c3cc(Cl)ccc23)CC1 [Ex. 46, 7-Chloro-4-(1-methylpiperidin-4-yl)-2H-isoquinolin-1-one] |
|  | 23 | CN1CCC(c2c[nH]c(=O)c3cc(F)ccc23)CC1 [Ex. 47, 7-Fluoro-4-(1-methylpiperidin-4-yl)-2H-isoquinolin-1-one hydrochloride] |
|  | 24 | O=c1[nH]cc(C2CCN(CCO)CC2)c2ccc(F)cc12 [Ex. 48, 7-Fluoro-4-(1-(2-hydroxyethyl)piperidin-4-yl)-2H-isoquinolin-1-one hydrochloride] |
|  | 43 | CN1CCC(c2nn(C)c3[nH]c(=O)c4ccccc4c23)CC1 [Ex. 209, 1-(1-methylpiperidin-4-yl)-3-methyl-pyrazolo[3,4-c]isoquinolin-5(4H)-one] |
|  | 25 | CCN1CCC(c2nn(C)c3[nH]c(=O)c4ccccc4c23)CC1 [Ex. 210, 1-(1-Ethylpiperidin-4-yl)-3-methyl-pyrazolo[3,4-c]isoquinolin-5(4H)-one] |
|  | 47 | CCN1CCC(c2c[nH]c(=O)c3cc(F)ccc23)CC1 [Ex. 212, 7-Fluoro-4-(1-ethylpiperidin-4-yl)-2H-isoquinolin-1-one] |
|  | 30 | Cn1nc(C2CCNCC2)c2c3ccc(F)cc3c(=O)[nH]c21 [Ex. 221, 7-Fluoro-1-(piperidin-4-yl)-3-methyl-pyrazolo[3,4-c]isoquinolin-5(4H)-one hydrochloride] |
|  | 44 | CN1CCC(c2nn(C)c3[nH]c(=O)c4cc(F)ccc4c23)CC1 [Ex. 222, 7-Fluoro-1-(1-methylpiperidin-4-yl)-3-methyl-pyrazolo[3,4-c]isoquinolin-5(4H)-one] |
|  | 30 | CCN1CCC(c2nn(C)c3[nH]c(=O)c4cc(F)ccc4c23)CC1 [Ex. 223, 1-(1-Ethylpiperidin-4-yl)-7-fluoro-3-methyl-pyrazolo[3,4-c]isoquinolin-5(4H)-one] |
|  | 42 | CCCN1CCC(c2nn(C)c3[nH]c(=O)c4cc(F)ccc4c23)CC1 [Ex. 225, 7-Fluoro-1-(1-propylpiperidin-4-yl)-3-methyl-pyrazolo[3,4-c]isoquinolin-5(4H)-one] |
|  | 47 | CCCN1CCC(c2nn(C)c3[nH]c(=O)c4ccccc4c23)CC1 [Ex. 226, 1-(1-Propylpiperidin-4-yl)-3-methyl-pyrazolo[3,4-c]isoquinolin-5(4H)-one] |
| 224.9 to 226.2 |  | COc1ccc2c(C3CCN(C)CC3)c[nH]c(=O)c2c1 [Example 201, 7-Methoxy-4-(1-methylpiperidin-4-yl)-2H-isoquinolin-1-one] |
